We go through one compound from patent publication US10478501B2, “Method of treating disorders using a pharmaceutical composition of oligopeptides” (Merck Patent GmbH, priority 2011, dated 2019).

The test system of test [1] is MDA-MB-231 breast cancer bone metastases. The experiment in a line: Experimental breast cancer bone metastases in nude rats: histology / immunofluorescence of tumor vessels. The test is classed as in vivo, nude rats (RNU strain). The settings on record: after 4 weeks treatment (control rats 8.8 μm; p<0.01). As to the method:
Nude rats (RNU strain) are obtained from Harlan-Winkelmann GmbH (Borchen, Germany) at the age of six weeks and housed in a specific pathogen-free environment in a mini barrier system of the central animal facility. Animals are kept under controlled conditions (21±2° C. room temperature, 60% humidity, 12 h light-dark rhythm) and offered autoclaved food and water ad libitum. Sub-confluent MDAMB-231 cells are harvested using 0.05% Trypsin-EDTA (Gibco®; Invitrogen, Karlsruhe, Germany) counted on a Neubauer's chamber and resuspended in RPMI-1640 to a final concentration of 10^5 cells in 200 μl. Rats are anesthetized using a mixture of nitrous oxide (1 l/min), oxygen (0.5 l/min) and isoflurane (1.5 vol. %). Arterial branches of the right hind leg are dissected and 10^5 cells injected into the superficial epigastric artery as described previously.^28 Bone metastases established and are observed exclusively in the femur, tibia and fibula of the right hind leg. […]
At the end of the observation period lower limbs of each animal are amputated and muscular tissue removed. […] Mean positive area fractions of SMA and collagen IV (in percent) as well as mean vessel diameters (in μm) are determined from 4 representative animals of each group analyzing 10 fields of view chosen randomly from each rat using Analysis Software (cell^F; Olympus Soft Imaging Solutions, Münster, Germany). […]

The next test deals with H460. Briefly: Cellular radiosensitivity by clonogenic cell survival assay, H460. It counts as cell-based, human. Particulars: combined with γ-radiation, given 1 h before and continued 23 h after irradiation. As to the method:
(§1) Methods: Three non-small cell lung carcinoma lines (NSCLCs) (H460, A549 and H1299) and three head and neck squamous cell carcinoma lines (HNSCCs) (FaDu, SCC-15 and SCC-25) cell lines were used for in vitro experiments. Of these, H460 and FaDu were used for in vivo testing when grown as xenografts in nude mice. The effects of cilengitide (1-50 μg/ml, 24 h) on in vitro cell viability was determined by MTS assay and on cellular radiosensitivity by clonogenic cell survival assay after exposing the cells to graded single doses of γ-radiation with or without cilengitide (given 1 h before and continued for 23 h after irradiation). In vivo effect of cilengitide on radioresponse of xenografts was assessed by tumor growth delay. When tumor xenografts reached 7 mm in diameter cilengitide treatment (30 or 60 mg/d/5 or 10 days) was initiated followed by a single dose of 15 Gy local radiation (using ^137Cs γ-ray source), when the tumors reached 8 mm.

For test [2], the system named is FaDu (HNSCC) tumor xenografts. The experiment in a line: Tumor growth delay of FaDu xenografts with radiation. The test is classed as in vivo, nude mice. As for the experimental part:
as §1

The subject of test [3] is 4T1 mouse breast tumour cells. Briefly: Study 006: 4T1 survival model. It counts as in vivo, female BALB/c mice. The settings on record: 300 mg/kg daily s.c. as Composition according to Example 18; mastectomy 11 days post-inoculation. As for the experimental part: 4T1 mouse breast tumour cells were orthotopically inoculated into the fourth mammary fat pad of female BALB/c mice. Treatment started seven days post-inoculation (Day 0), when the mice were randomised, based on tumour size. Animals received treatment with either Vehicle Control (Placebo), EMD 121974 (75, 150 or 300 mg/kg as a Composition according to Example 18), or Taxol® (8 mg/kg). The Vehicle Control and EMD 121974 were administered daily by subcutaneous injection. Taxol® was administered three times weekly by intravenous injection. To assess the survival of tumor bearing animals a mastectomy was performed 11 days post-inoculation (4 days after treatment start). Animals were monitored daily for clinical symptoms and were culled if body weight loss in any animal exceeded 15% of initial weight, the animal was culled or disease progression was observed (e.g. severe breathing difficulties). Body weight measurements were made three times per week.

`CC(C)[C@H]1C(=O)N[C@@H](CCCN=C(N)N)C(=O)NCC(=O)N[C@@H](CC(=O)O)C(=O)N[C@H](Cc2ccccc2)C(=O)N1C` [Cilengitide, cyclo-(Arg-Gly-Asp-DPhe-NMeVal)]: the “mean vessel diameter in bone metastases” value in test [1] is reported as 6.6 μm. In the test with H460, the radiosensitivity enhancement factor was determined as 1.35. In test [2] (with single dose of 15 Gy local radiation), the “enhancement factor of tumor radioresponse (tumor growth delay)” value is on record as 2.0. The “antitumor activity as a single agent (tumor growth delay)” value in test [2] (without radiation) is “no antitumor activity”. Moreover, the “survival of tumor bearing animals” value in test [3] is given as “comparable survival as Taxol”.
